Source: US11292770B2, “Pyridazinone herbicides” (FMC Corporation, priority 2017, dated 2022)

Key:
Assay type in all cases: in vivo
[1] = test system: barnyardgrass (Echinochloa crus-galli); assay: Test A preemergence, barnyardgrass; details: 0 to 100 scale
Excerpt: (§1) Seeds of plant species selected from barnyardgrass (Echinochloa crus-galli), kochia (Kochia scoparia), ragweed (common ragweed, Ambrosia elation), ryegrass, Italian (Italian ryegrass, Lolium multiflorum), foxtail, green (green foxtail, Setaria viridis), and pigweed (Amaranthus retroflexus) were planted into a blend of loam soil and sand and treated preemergence with a directed soil spray using test chemicals formulated in a non-phytotoxic solvent mixture which included a surfactant. At the same time, plants selected from these weed species and also wheat (Triticum aestivum), corn (Zea mays), blackgrass (Alopecurus myosuroides), and galium (catchweed bedstraw, Galium aparine) were planted in pots containing the same blend of loam soil and sand and treated with postemergence applications of test chemicals formulated in the same manner Plants ranged in height from 2 to 10 cm and were in the one- to two-leaf stage for the postemergence treatment. Treated plants and untreated controls were maintained in a greenhouse for approximately 10 d, after which time all treated plants were compared to untreated controls and visually evaluated for injury. Plant response ratings, summarized in Table A, are based on a 0 to 100 scale where 0 is no effect and 100 is complete control. A dash (—) response means no test result.

kochia (Kochia scoparia) [2] = assay: Test A preemergence, kochia; details: 0 to 100 scale
Excerpt: as §1

[3] = test system: ragweed (common ragweed, Ambrosia elation); assay: Test A preemergence, ragweed; details: 0 to 100 scale
Excerpt: as §1

[4] = test system: ryegrass, Italian (Italian ryegrass, Lolium multiflorum); assay: Test A preemergence, ryegrass, Italian; details: 0 to 100 scale
Excerpt: as §1

[5] = test system: foxtail, green (green foxtail, Setaria viridis); assay: Test A preemergence, foxtail, green; details: 0 to 100 scale
Excerpt: as §1

[6] = test system: pigweed (Amaranthus retroflexus); assay: Test A preemergence, pigweed; details: 0 to 100 scale
Excerpt: as §1

[7] = test system: barnyardgrass (Echinochloa crus-galli); assay: Test A postemergence, barnyardgrass; details: 0 to 100 scale
Excerpt: as §1

kochia (Kochia scoparia) [8] = assay: Test A postemergence, kochia; details: 0 to 100 scale
Excerpt: as §1

[9] = test system: ragweed (common ragweed, Ambrosia elation); assay: Test A postemergence, ragweed; details: 0 to 100 scale
Excerpt: as §1

[10] = test system: ryegrass, Italian (Italian ryegrass, Lolium multiflorum); assay: Test A postemergence, ryegrass, Italian; details: 0 to 100 scale
Excerpt: as §1

[11] = test system: foxtail, green (green foxtail, Setaria viridis); assay: Test A postemergence, foxtail, green; details: 0 to 100 scale
Excerpt: as §1

[12] = test system: pigweed (Amaranthus retroflexus); assay: Test A postemergence, pigweed; details: 0 to 100 scale
Excerpt: as §1

[13] = test system: wheat (Triticum aestivum); assay: Test A postemergence, wheat; details: 0 to 100 scale
Excerpt: as §1

corn (Zea mays) = assay: Test A postemergence, corn; details: 0 to 100 scale
Excerpt: as §1

[14] = test system: blackgrass (Alopecurus myosuroides); assay: Test A postemergence, blackgrass; details: 0 to 100 scale
Excerpt: as §1

[15] = test system: galium (catchweed bedstraw, Galium aparine); assay: Test A postemergence, galium; details: 0 to 100 scale
Excerpt: as §1

rice (Oryza sativa) = assay: Test B flooded paddy test, rice; details: Flood, 250 g ai/ha; scale of 0 to 100
Method: (§2) Plant species in the flooded paddy test selected from rice (Oryza sativa), sedge, umbrella (small-flower umbrella sedge, Cyperus difformis), ducksalad (Heteranthera limosa), and barnyardgrass (Echinochloa crus-galli) were grown to the 2-leaf stage for testing. At the time of treatment, test pots were flooded to 3 cm above the soil surface, treated by application of test compounds directly to the paddy water, and then maintained at that water depth for the duration of the test. Treated plants and controls were maintained in a greenhouse for 13 to 15 d, after which time all species were compared to controls and visually evaluated. Plant response ratings, summarized in Table B, are based on a scale of 0 to 100 where 0 is no effect and 100 is complete control. A dash (—) response means no test result.

[16] = test system: sedge, umbrella (small-flower umbrella sedge, Cyperus difformis); assay: Test B flooded paddy test, sedge, umbrella; details: Flood, 250 g ai/ha; scale of 0 to 100
Method: as §2

[17] = test system: ducksalad (Heteranthera limosa); assay: Test B flooded paddy test, ducksalad; details: Flood, 250 g ai/ha; scale of 0 to 100
Method: as §2

[18] = test system: barnyardgrass (Echinochloa crus-galli); assay: Test B flooded paddy test, barnyardgrass; details: Flood, 250 g ai/ha; scale of 0 to 100, 0 no effect, 100 complete control
Method: as §2

Foxtail, Giant [19] = assay: Test A postemergence, foxtail, giant; details: 0 to 100 scale
Foxtail, Giant [20] = assay: Test A preemergence, foxtail, giant; details: 0 to 100 scale
[21] = 125 g ai/ha, 0 no effect, 100 complete control

Cc1c2ccccc2c(-c2c(O)c(Cl)nn(C)c2=O)c2ccccc12 [Compound 5]
Plant response rating, Barnyardgrass ([1]; 31 g ai/ha): 0 | Plant response rating, Barnyardgrass ([1]; 125 g ai/ha): 0 | Plant response rating, Kochia (kochia (Kochia scoparia) [2]; 31 g ai/ha): 0 | Plant response rating, Kochia (kochia (Kochia scoparia) [2]; 125 g ai/ha): 0 | Plant response rating, Ragweed ([3]; 31 g ai/ha): 0 | Plant response rating, Ragweed ([3]; 125 g ai/ha): 0 | Plant response rating, Ryegrass, Italian ([4]; 31 g ai/ha): 0 | Plant response rating, Ryegrass, Italian ([4]; 125 g ai/ha): 0 | Plant response rating, Foxtail, Green ([5]; 31 g ai/ha): 0 | Plant response rating, Foxtail, Green ([5]; 125 g ai/ha): 0 | Plant response rating, Pigweed ([6]; 31 g ai/ha): 0 | Plant response rating, Pigweed ([6]; 125 g ai/ha): 60 | Plant response rating, Barnyardgrass ([7]; 31 g ai/ha): 0 | Plant response rating, Barnyardgrass [7, 21]: 30 | Plant response rating, Kochia (kochia (Kochia scoparia) [8]; 31 g ai/ha): 0 | Plant response rating, Kochia (kochia (Kochia scoparia) [8]; 125 g ai/ha): 0 | Plant response rating, Ragweed ([9]; 31 g ai/ha): 10 | Plant response rating, Ragweed ([9]; 125 g ai/ha): 20 | Plant response rating, Ryegrass, Italian ([10]; 31 g ai/ha): 0 | Plant response rating, Ryegrass, Italian ([10]; 125 g ai/ha): 50 | Plant response rating, Foxtail, Green ([11]; 31 g ai/ha): 0 | Plant response rating, Foxtail, Green ([11]; 125 g ai/ha): 30 | Plant response rating, Pigweed ([12]; 31 g ai/ha): 50 | Plant response rating, Pigweed ([12]; 125 g ai/ha): 90 | Plant response rating, Wheat ([13]; 31 g ai/ha): 0 | Plant response rating, Wheat ([13]; 125 g ai/ha): 0 | Plant response rating, Corn (corn (Zea mays); 31 g ai/ha): 10 | Plant response rating, Corn (corn (Zea mays); 125 g ai/ha): 20 | Plant response rating, Blackgrass ([14]; 31 g ai/ha): 0 | Plant response rating, Blackgrass ([14]; 125 g ai/ha): 0 | Plant response rating, Galium ([15]; 31 g ai/ha): 20 | Plant response rating, Galium ([15]; 125 g ai/ha): 70 | Plant response rating, Rice (rice (Oryza sativa)): 0 | Plant response rating, Sedge, Umbrella [16]: 95 | Plant response rating, Ducksalad [17]: 90 | Plant response rating, Barnyardgrass [18]: 0

CC(=O)Oc1c(Cl)nn(C)c(=O)c1-c1c2ccccc2cc2ccccc12 [Compound 6]
Plant response rating, Barnyardgrass ([1]; 31 g ai/ha): 0 | Plant response rating, Barnyardgrass ([1]; 125 g ai/ha): 0 | Plant response rating, Kochia (kochia (Kochia scoparia) [2]; 31 g ai/ha): 0 | Plant response rating, Kochia (kochia (Kochia scoparia) [2]; 125 g ai/ha): 0 | Plant response rating, Ragweed ([3]; 31 g ai/ha): 40 | Plant response rating, Ragweed ([3]; 125 g ai/ha): 100 | Plant response rating, Ryegrass, Italian ([4]; 31 g ai/ha): 30 | Plant response rating, Ryegrass, Italian ([4]; 125 g ai/ha): 30 | Plant response rating, Pigweed ([6]; 31 g ai/ha): 80 | Plant response rating, Pigweed ([6]; 125 g ai/ha): 100 | Plant response rating, Barnyardgrass ([7]; 31 g ai/ha): 0 | Plant response rating, Barnyardgrass [7, 21]: 10 | Plant response rating, Kochia (kochia (Kochia scoparia) [8]; 31 g ai/ha): 0 | Plant response rating, Kochia (kochia (Kochia scoparia) [8]; 125 g ai/ha): 20 | Plant response rating, Ragweed ([9]; 31 g ai/ha): 90 | Plant response rating, Ragweed ([9]; 125 g ai/ha): 90 | Plant response rating, Ryegrass, Italian ([10]; 31 g ai/ha): 20 | Plant response rating, Ryegrass, Italian ([10]; 125 g ai/ha): 70 | Plant response rating, Pigweed ([12]; 31 g ai/ha): 100 | Plant response rating, Pigweed ([12]; 125 g ai/ha): 100 | Plant response rating, Wheat ([13]; 31 g ai/ha): 10 | Plant response rating, Wheat ([13]; 125 g ai/ha): 10 | Plant response rating, Corn (corn (Zea mays); 31 g ai/ha): 0 | Plant response rating, Corn (corn (Zea mays); 125 g ai/ha): 0 | Plant response rating, Blackgrass ([14]; 31 g ai/ha): 0 | Plant response rating, Blackgrass ([14]; 125 g ai/ha): 0 | Plant response rating, Galium ([15]; 31 g ai/ha): 80 | Plant response rating, Galium ([15]; 125 g ai/ha): 100 | Plant response rating, Rice (rice (Oryza sativa)): 0 | Plant response rating, Sedge, Umbrella [16]: 95 | Plant response rating, Ducksalad [17]: 85 | Plant response rating, Barnyardgrass [18]: 0 | Plant response rating, Foxtail, Giant (Foxtail, Giant [19]; 31 g ai/ha): 0 | Plant response rating, Foxtail, Giant (Foxtail, Giant [19]; 125 g ai/ha): 20 | Plant response rating, Foxtail, Giant (Foxtail, Giant [20]; 31 g ai/ha): 0 | Plant response rating, Foxtail, Giant (Foxtail, Giant [20]; 125 g ai/ha): 10

C1COCCN1.Cn1nc(Cl)c(O)c(-c2c3ccccc3cc3ccccc23)c1=O [Compound 7]
Plant response rating, Barnyardgrass ([1]; 31 g ai/ha): 0 | Plant response rating, Barnyardgrass ([1]; 125 g ai/ha): 0 | Plant response rating, Kochia (kochia (Kochia scoparia) [2]; 31 g ai/ha): 0 | Plant response rating, Kochia (kochia (Kochia scoparia) [2]; 125 g ai/ha): 0 | Plant response rating, Ragweed ([3]; 31 g ai/ha): 0 | Plant response rating, Ragweed ([3]; 125 g ai/ha): 40 | Plant response rating, Ryegrass, Italian ([4]; 31 g ai/ha): 0 | Plant response rating, Ryegrass, Italian ([4]; 125 g ai/ha): 0 | Plant response rating, Pigweed ([6]; 31 g ai/ha): 60 | Plant response rating, Pigweed ([6]; 125 g ai/ha): 100 | Plant response rating, Barnyardgrass ([7]; 31 g ai/ha): 0 | Plant response rating, Barnyardgrass [7, 21]: 0 | Plant response rating, Kochia (kochia (Kochia scoparia) [8]; 31 g ai/ha): 0 | Plant response rating, Kochia (kochia (Kochia scoparia) [8]; 125 g ai/ha): 10 | Plant response rating, Ragweed ([9]; 31 g ai/ha): 90 | Plant response rating, Ragweed ([9]; 125 g ai/ha): 100 | Plant response rating, Ryegrass, Italian ([10]; 31 g ai/ha): 10 | Plant response rating, Ryegrass, Italian ([10]; 125 g ai/ha): 60 | Plant response rating, Pigweed ([12]; 31 g ai/ha): 100 | Plant response rating, Pigweed ([12]; 125 g ai/ha): 100 | Plant response rating, Wheat ([13]; 31 g ai/ha): 0 | Plant response rating, Wheat ([13]; 125 g ai/ha): 0 | Plant response rating, Corn (corn (Zea mays); 31 g ai/ha): 10 | Plant response rating, Corn (corn (Zea mays); 125 g ai/ha): 10 | Plant response rating, Blackgrass ([14]; 31 g ai/ha): 0 | Plant response rating, Blackgrass ([14]; 125 g ai/ha): 10 | Plant response rating, Galium ([15]; 31 g ai/ha): 70 | Plant response rating, Galium ([15]; 125 g ai/ha): 100 | Plant response rating, Rice (rice (Oryza sativa)): 0 | Plant response rating, Sedge, Umbrella [16]: 100 | Plant response rating, Ducksalad [17]: 100 | Plant response rating, Barnyardgrass [18]: 0 | Plant response rating, Foxtail, Giant (Foxtail, Giant [19]; 31 g ai/ha): 0 | Plant response rating, Foxtail, Giant (Foxtail, Giant [19]; 125 g ai/ha): 10 | Plant response rating, Foxtail, Giant (Foxtail, Giant [20]; 31 g ai/ha): 0 | Plant response rating, Foxtail, Giant (Foxtail, Giant [20]; 125 g ai/ha): 0
